These results are taken from US20230295197A1, “STAT5 and STAT6 Degraders and Uses Thereof” (REGENTS OF THE UNIVERSITY OF MICHICAN, priority 2022, published 2023).

This assay deals with T1, STAT6 (Homo sapiens, UniProt P42226).
T1 construct: endogenous in cells; host or cells: MOLM-16, KU-812, SKNO1, MB231, L1236
T1 sequence (P42226 1-847): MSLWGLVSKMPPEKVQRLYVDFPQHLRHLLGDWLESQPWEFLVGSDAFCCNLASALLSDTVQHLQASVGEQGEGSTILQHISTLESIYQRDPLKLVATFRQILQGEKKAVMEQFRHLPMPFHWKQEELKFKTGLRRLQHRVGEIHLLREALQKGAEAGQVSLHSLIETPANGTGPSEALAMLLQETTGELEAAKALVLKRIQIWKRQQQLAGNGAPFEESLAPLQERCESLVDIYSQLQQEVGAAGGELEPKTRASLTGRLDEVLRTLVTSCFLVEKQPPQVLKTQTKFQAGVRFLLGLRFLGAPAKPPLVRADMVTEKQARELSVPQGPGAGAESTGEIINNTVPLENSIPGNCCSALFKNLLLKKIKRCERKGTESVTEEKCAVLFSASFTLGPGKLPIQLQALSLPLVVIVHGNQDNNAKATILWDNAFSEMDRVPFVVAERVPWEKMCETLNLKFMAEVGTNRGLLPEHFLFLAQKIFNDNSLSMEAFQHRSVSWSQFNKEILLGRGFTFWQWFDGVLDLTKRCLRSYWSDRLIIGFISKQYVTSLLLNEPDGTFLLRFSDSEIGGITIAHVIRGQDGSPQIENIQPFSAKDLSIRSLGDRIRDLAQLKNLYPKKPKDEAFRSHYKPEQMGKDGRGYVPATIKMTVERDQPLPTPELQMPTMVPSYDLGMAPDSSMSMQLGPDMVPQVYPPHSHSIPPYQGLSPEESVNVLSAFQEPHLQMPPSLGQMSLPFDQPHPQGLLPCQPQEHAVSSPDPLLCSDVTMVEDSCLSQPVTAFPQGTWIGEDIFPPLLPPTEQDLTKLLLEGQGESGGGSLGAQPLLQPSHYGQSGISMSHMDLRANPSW
Briefly: Immunoblotting (Western blot) analysis of STAT6 degradation efficiency of degraders in treated cells. The assay is classed as cell-based. In outline:
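Treatment of cells with degraders at stated concentrations and exposure times comes first. Lysates are then equalised for total protein by BCA, and the proteins are separated, transferred and immunostained for STAT6 or STAT5 alongside GAPDH. Signal is quantified from infrared fluorescence.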
(Immunoblotting shows a protein as a band on a membrane.)

Where [1] appears, read: MOLM-16 cells, class symbols, read-out: DC50 S6 MOLM-16.
Setting [2] is: L1236 cells, read-out: DC50 S6 L1236.

Where two headings read alike, the source gives them in different places.

Broadly, the DC50 is the concentration at which degradation of the target reaches its halfway point.

`CC(C)(C)[C@H](NC(=O)c1cc2cc(C(F)(F)P(=O)(O)O)ccc2s1)C(=O)N1Cc2cc(OCC(=O)NCCCC#Cc3cccc4c3C(=O)N(C3CCC(=O)NC3=O)C4=O)ccc2C[C@H]1C(=O)N1CCO[C@H](c2ccccc2)C1` (stereo partly drawn) [Compound 539, ((2-(((2S)-1-((3S)-7-(2-((5-(2-(2,6-dioxopiperidin-3-yl)-1,3-dioxoisoindolin-4-yl)pent-4-yn-1-yl)amino)-2-oxoethoxy)-3-((R)-2-phenylmorpholine-4-carbonyl)-3,4-dihydroisoquinolin-2(1H)-yl)-3,3-dimethyl-1-oxobutan-2-yl)carbamoyl)benzo[b]thiophen-5-yl)difluoromethyl)phosphonic acid]: under setting [1], the DC50 is greater than 10 µM.

Take `Cc1ncsc1-c1ccc([C@H](C)NC(=O)[C@@H]2C[C@@H](O)CN2C(=O)[C@@H](NC(=O)CCNC(=O)COc2ccc3c(c2)CN(C(=O)[C@@H](NC(=O)c2cc4cc(C(F)(F)P(=O)(O)O)ccc4s2)C(C)(C)C)[C@H](C(=O)N2CCC[C@H](c4ccccc4)C2)C3)C(C)(C)C)cc1` [Compound 471, (difluoro(2-(((S)-1-((S)-7-(2-((3-(((S)-1-((2S,4R)-4-hydroxy-2-(((S)-1-(4-(4-methylthiazol-5-yl)phenyl)ethyl)carbamoyl)pyrrolidin-1-yl)-3,3-dimethyl-1-oxobutan-2-yl)amino)-3-oxopropyl)amino)-2-oxoethoxy)-3-((R)-3-phenylpiperidine-1-carbonyl)-3,4-dihydroisoquinolin-2(1H)-yl)-3,3-dimethyl-1-oxobutan-2-yl)carbamoyl)benzo[b]thiophen-5-yl)methyl)phosphonic acid]: the DC50 under setting [1] is greater than 10 µM.

As for `Cc1ncsc1-c1ccc([C@H](C)NC(=O)[C@@H]2C[C@@H](O)CN2C(=O)[C@@H](NC(=O)CCCCCCCNC(=O)COc2ccc3c(c2)CN(C(=O)[C@@H](NC(=O)c2cc4cc(C(F)(F)P(=O)(O)O)ccc4s2)C(C)(C)C)[C@H](C(=O)N2CCO[C@H](c4ccccc4)C2)C3)C(C)(C)C)cc1` [Compound 467, (difluoro(2-(((S)-1-((S)-7-(2-((8-(((S)-1-((2S,4R)-4-hydroxy-2-(((S)-1-(4-(4-methylthiazol-5-yl)phenyl)ethyl)carbamoyl)pyrrolidin-1-yl)-3,3-dimethyl-1-oxobutan-2-yl)amino)-8-oxooctyl)amino)-2-oxoethoxy)-3-((R)-2-phenylmorpholine-4-carbonyl)-3,4-dihydroisoquinolin-2(1H)-yl)-3,3-dimethyl-1-oxobutan-2-yl)carbamoyl)benzo[b]thiophen-5-yl)methyl)phosphonic acid], the DC50 reads like this: under setting [2], greater than 10 µM; under setting [1], greater than 10 µM.

`CC(C)(C)[C@H](NC(=O)c1cc2cc(C(F)(F)P(=O)(O)O)ccc2s1)C(=O)N1C[C@H](OCCCCCC#Cc2cccc3c2CN(C2CCC(=O)NC2=O)C3=O)C[C@H]1C(=O)N1CCC[C@H](c2ccccc2)C1` (stereo partly drawn) [Compound 602, ((2-(((2S)-1-((2S,4R)-4-((7-(2-(2,6-dioxopiperidin-3-yl)-1-oxoisoindolin-4-yl)hept-6-yn-1-yl)oxy)-2-((R)-3-phenylpiperidine-1-carbonyl)pyrrolidin-1-yl)-3,3-dimethyl-1-oxobutan-2-yl)carbamoyl)benzo[b]thiophen-5-yl)difluoromethyl)phosphonic acid]: the DC50 (MOLM-16 cells, numeric bound, read-out: DC50 S6 MOLM-16) was greater than 0.3 µM.

As to `CC(C)(C)[C@H](NC(=O)c1cc2cc(C(F)(F)P(=O)(O)O)ccc2s1)C(=O)N1CCN(C(=O)CC(=O)NCC#Cc2cccc3c2C(=O)N(C2CCC(=O)NC2=O)C3=O)C[C@H]1C(=O)N1CCO[C@H](c2ccccc2)C1` (stereo partly drawn) [Compound 507, ((2-(((2S)-1-((2S)-4-(3-((3-(2-(2,6-dioxopiperidin-3-yl)-1,3-dioxoisoindolin-4-yl)prop-2-yn-1-yl)amino)-3-oxopropanoyl)-2-((R)-2-phenylmorpholine-4-carbonyl)piperazin-1-yl)-3,3-dimethyl-1-oxobutan-2-yl)carbamoyl)benzo[b]thiophen-5-yl)difluoromethyl)phosphonic acid], under setting [1], the DC50 was greater than 10 µM.

Turning to `Cc1ncsc1-c1ccc([C@H](C)NC(=O)[C@@H]2C[C@@H](O)CN2C(=O)[C@@H](NC(=O)CNC(=O)COc2ccc3c(c2)CN(C(=O)[C@@H](NC(=O)c2cc4cc(C(F)(F)P(=O)(O)O)ccc4s2)C(C)(C)C)[C@H](C(=O)N2CCO[C@H](c4ccccc4)C2)C3)C(C)(C)C)cc1` [Compound 461, (difluoro(2-(((S)-1-((S)-7-(2-((2-(((S)-1-((2S,4R)-4-hydroxy-2-(((S)-1-(4-(4-methylthiazol-5-yl)phenyl)ethyl)carbamoyl)pyrrolidin-1-yl)-3,3-dimethyl-1-oxobutan-2-yl)amino)-2-oxoethyl)amino)-2-oxoethoxy)-3-((R)-2-phenylmorpholine-4-carbonyl)-3,4-dihydroisoquinolin-2(1H)-yl)-3,3-dimethyl-1-oxobutan-2-yl)carbamoyl)benzo[b]thiophen-5-yl)methyl)phosphonic acid], the DC50 runs as follows: under setting [2], greater than 10 µM; under setting [1], greater than 10 µM.

Turning to `CC(C)(C)[C@H](NC(=O)c1cc2cc(C(F)(F)P(=O)(O)O)ccc2s1)C(=O)N1Cc2cc(OCC(=O)NCCCC#Cc3ccc4c(c3)C(=O)N(C3CCC(=O)NC3=O)C4=O)ccc2C[C@H]1C(=O)N1CCC[C@H](c2ccccc2)C1` (stereo partly drawn) [Compound 554, ((2-(((2S)-1-((3S)-7-(2-((5-(2-(2,6-dioxopiperidin-3-yl)-1,3-dioxoisoindolin-5-yl)pent-4-yn-1-yl)amino)-2-oxoethoxy)-3-((R)-3-phenylpiperidine-1-carbonyl)-3,4-dihydroisoquinolin-2(1H)-yl)-3,3-dimethyl-1-oxobutan-2-yl)carbamoyl)benzo[b]thiophen-5-yl)difluoromethyl)phosphonic acid], the DC50 under setting [1] was greater than 10 µM.

On to `CC(C)(C)[C@H](NC(=O)c1cc2cc(C(F)(F)P(=O)(O)O)ccc2s1)C(=O)N1CCN(C(=O)CC(=O)NCCCC#Cc2ccc3c(c2)C(=O)N(C2CCC(=O)NC2=O)C3=O)C[C@H]1C(=O)N1CCC[C@H](c2ccccc2)C1` (stereo partly drawn) [Compound 526, ((2-(((2S)-1-((2S)-4-(3-((5-(2-(2,6-dioxopiperidin-3-yl)-1,3-dioxoisoindolin-5-yl)pent-4-yn-1-yl)amino)-3-oxopropanoyl)-2-((R)-3-phenylpiperidine-1-carbonyl)piperazin-1-yl)-3,3-dimethyl-1-oxobutan-2-yl)carbamoyl)benzo[b]thiophen-5-yl)difluoromethyl)phosphonic acid], for which the DC50 under setting [1] is greater than 10 µM.

As to `CC(C)(C)[C@H](NC(=O)c1cc2cc(C(F)(F)P(=O)(O)O)ccc2s1)C(=O)N1Cc2cc(OCC(=O)NCCCCCCCCC#Cc3cccc4c3C(=O)N(C3CCC(=O)NC3=O)C4=O)ccc2C[C@H]1C(=O)N1CCO[C@H](c2ccccc2)C1` (stereo partly drawn) [Compound 545, ((2-(((2S)-1-((3S)-7-(2-((10-(2-(2,6-dioxopiperidin-3-yl)-1,3-dioxoisoindolin-4-yl)dec-9-yn-1-yl)amino)-2-oxoethoxy)-3-((R)-2-phenylmorpholine-4-carbonyl)-3,4-dihydroisoquinolin-2(1H)-yl)-3,3-dimethyl-1-oxobutan-2-yl)carbamoyl)benzo[b]thiophen-5-yl)difluoromethyl)phosphonic acid], under setting [1], the DC50 was greater than 10 µM.

In the case of `Cc1ncsc1-c1ccc([C@H](C)NC(=O)[C@@H]2C[C@@H](O)CN2C(=O)[C@@H](NC(=O)CCCCNC(=O)CC(=O)N2CCN(C(=O)[C@@H](NC(=O)c3cc4cc(C(F)(F)P(=O)(O)O)ccc4s3)C(C)(C)C)[C@H](C(=O)N3CCC[C@H](c4ccccc4)C3)C2)C(C)(C)C)cc1` [Compound 455, (difluoro(2-(((S)-1-((S)-4-(3-((5-(((S)-1-((2S,4R)-4-hydroxy-2-(((S)-1-(4-(4-methylthiazol-5-yl)phenyl)ethyl)carbamoyl)pyrrolidin-1-yl)-3,3-dimethyl-1-oxobutan-2-yl)amino)-5-oxopentyl)amino)-3-oxopropanoyl)-2-((R)-3-phenylpiperidine-1-carbonyl)piperazin-1-yl)-3,3-dimethyl-1-oxobutan-2-yl)carbamoyl)benzo[b]thiophen-5-yl)methyl)phosphonic acid], the DC50 under setting [2] is greater than 10 µM and the DC50 under setting [1] is greater than 10 µM.
